The conditions of series [1]: parent nucleosides, from previous publications; cited from earlier work.
Another series deals with DncV (Vibrio cholerae serotype O1, UniProt Q9KVG7). Put plainly: DncV-mediated CDN synthesis, kinetics by HPLC. The series is classed as biochemical.
The target in a further series is rocR (Pseudomonas aeruginosa, UniProt Q9HX69). The series can be described thus: rocR-mediated CDN hydrolysis monitored by HPLC. The series is classed as biochemical, P. aeruginosa. To be noted: 100 nM rocR, 10 μM CDN.
Chain of rocR (Q9HX69 whole entry): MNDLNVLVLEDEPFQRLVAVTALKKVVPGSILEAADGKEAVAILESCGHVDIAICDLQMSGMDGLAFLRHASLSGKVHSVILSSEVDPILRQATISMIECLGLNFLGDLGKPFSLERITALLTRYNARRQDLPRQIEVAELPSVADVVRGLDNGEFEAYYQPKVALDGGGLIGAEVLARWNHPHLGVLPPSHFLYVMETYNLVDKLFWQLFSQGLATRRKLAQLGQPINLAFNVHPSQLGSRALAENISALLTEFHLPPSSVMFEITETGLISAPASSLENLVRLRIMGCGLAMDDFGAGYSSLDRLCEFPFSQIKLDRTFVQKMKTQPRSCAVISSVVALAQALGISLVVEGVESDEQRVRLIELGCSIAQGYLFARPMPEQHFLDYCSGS
The mark [2] stands for this setting: 500 μM NTP, 37 °C, HPLC, CIAP-quenched, mean ± SD.

Chain of DncV (Q9KVG7 whole entry): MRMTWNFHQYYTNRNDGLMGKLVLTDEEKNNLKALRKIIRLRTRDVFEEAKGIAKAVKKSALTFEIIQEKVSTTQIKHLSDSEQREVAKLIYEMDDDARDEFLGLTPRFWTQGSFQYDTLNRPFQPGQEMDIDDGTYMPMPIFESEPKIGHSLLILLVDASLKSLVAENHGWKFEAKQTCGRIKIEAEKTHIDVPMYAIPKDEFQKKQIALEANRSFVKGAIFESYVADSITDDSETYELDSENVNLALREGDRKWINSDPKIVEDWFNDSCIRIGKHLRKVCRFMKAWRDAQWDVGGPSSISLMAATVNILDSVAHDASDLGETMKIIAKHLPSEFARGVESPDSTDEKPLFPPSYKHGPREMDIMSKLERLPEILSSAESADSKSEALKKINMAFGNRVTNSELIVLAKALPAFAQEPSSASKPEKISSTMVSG

For `Nc1nc2c([C@@H]3O[C@H](CO)[C@@H](O)[C@H]3O)snc2c(=O)[nH]1` [^tzG], in series [1], the ε is 4870 M⁻¹ cm⁻¹, the “λabs^max” value was 333 nm, the “λem^max” value was 459 nm and the “ϕ (emission quantum yield)” value was 2.5×10^−1. In addition, in series [1], the ϕε is 1203.
With `Nc1nc2c(ncn2[C@@H]2O[C@@H]3COP(=O)(O)O[C@H]4[C@@H](O)[C@H](n5cnc6c(=O)[nH]c(N)nc65)O[C@@H]4COP(=O)(O)O[C@H]3[C@H]2O)c(=O)[nH]1` [c-di-GMP], on DncV (setting [2]), the “k1 (formation of first phosphodiester linkage, S to I1)” value was “(7.1 ±2.3) ×10^−6 μM^−1s^−1”; the “k2 (cyclization of intermediate I1 to product CDN)” value is “(7.4±2.1) ×10^−2 s^−1”; the “k3 (degradation of intermediate pppNpN to pNpN)” value is reported as “(6.4±0.3) ×10^−4 s^−1”. In addition, the k2/k3 on DncV (product formation versus degradation of the intermediate) is 116. In addition, the “time to complete cleavage by rocR” value at rocR is ~3 min. At rocR (mean ± SD), the “k1 (enzyme/substrate association)” value was 3.96e+06 ± 70000 M⁻¹ s⁻¹, the “k2 (cleavage reaction)” value was 0.76 ± 0.03 s⁻¹ and the “k−1 (enzyme/substrate dissociation)” value stood at 1.15 ± 0.21 s⁻¹.

(Values after publication PMC7220823 (Chemistry (Weinheim an der Bergstrasse, Germany), 2020).)
